According to patent publication US4578489A (priority 1982, dated 1986):
Like-named read-outs stand apart in the source and are kept apart here.

Key:
[1] = tested on: Penicillium funiculosum; experiment: Minimum inhibitory concentration against fungi, agar incorporation test, strain M; format: cell-based; details: malt extract/agar
Method: (§1) The invention is carried out using the known agar incorporation test in the following fungi:
(M) Penicillium funiculosum
(§2) in a malt extract/agar (Merck). Inhibition is effected by adding sufficient of each of the various compounds to give final concentrations in the agar of 2, 5, 10, 50 and 100 mg/liter. The concentrations (mg/liters) required to inhibit the growth of the fungi (starting from traces of fungi added dropwise) are illustrated in Table 3.

[2] = tested on: Alternaria alternata; experiment: Minimum inhibitory concentration against fungi, agar incorporation test, strain N; format: cell-based; details: malt extract/agar
Method: as §1, §2

[3] = tested on: Enteromorpha intestinalis; experiment: Action against Enteromorpha intestinalis: inhibitory concentration (MIC); format: in vivo; details: seawater containing biocide for entire test; concentration tested 0.5 mg/liter
Method: (§3) The action against the green alga Enteromorpha, which is the most important in seawter fouling, is investigated in sterile-filtered seawater containing an Erd-Schreiber solution. This solution is composed of a nutrient extract, phosphate and nitrate. The incubation of Enteromorpha intestinalis is carried out in a light thermostat at 18° C. under an alternation of 14 hours of light and 10 hours of darkness.
For determining the inhibitory concentration (MIC), the algae are kept in seawater containing biocide for the entire duration of the test (concentration tested: 0.5 mg/liter).

[4] = tested on: Bacillus subtilis; experiment: Minimum inhibitory concentration against bacteria, strain F; format: cell-based; details: 24 hours at 30° C.; tested at 100 and 300 mg/liter
Method: (§4) Overnight cultures, grown in Caso peptone bouillon (Merck) of the various strains of bacteria: (A) Proteus vulgaris, (B) Pseudomonas aeruginosa, (C) Enterobacter aerogenes, (D) Serratia marcencens, (E) Alcaligenes denitrificans and (F) Bacillus subtilis are each diluted in a ratio of 1/1000 in saline solution. Sufficient of the suspensions is put into Caso peptone bouillon to dilute the bacteria again in the ratio of 1/1000. Each of the compounds listed in Table 1 is then added in amounts of 100 and 300 mg/liter. After being incubated for 24 hours at 30° C. in a shaking waterbath, the turbidity of the samples is evaluated.

[5] = tested on: Enteromorpha intestinalis; experiment: Action against Enteromorpha intestinalis: destruction (minimum killing concentration); format: in vivo; details: 4 hours in seawater, then 6-8 weeks in fresh seawater
Method: as §3
The algae which have been cultured in this way are exposed to the products under investigation for a short time (4 hours) in seawater. The minimum killing concentration (MKC) is determined by taking the algae out of the seawater containing a specific quantity of algicide, after the treatment time in the latter, washing the algae and investigating growth or mortality after incubation in fresh seawater for a further period of 6-8 weeks.
The minimum killing concentration (MKC) indicates the amount of substance required to cause such damage to the algae within a specific time that they can no longer recover in fresh seawater and die out.

[6] = tested on: Enterobacter aerogenes; experiment: Minimum inhibitory concentration against bacteria, strain C; format: cell-based; details: 24 hours at 30° C.; tested at 100 and 300 mg/liter
Method: as §4

[7] = tested on: Aspergillus phoenicis; experiment: Minimum inhibitory concentration against fungi, agar incorporation test, strain L; format: cell-based; details: malt extract/agar
Method: as §1
(L) Aspergillus phoenicis
as §2

[8] = tested on: Endomyces geotrichum; experiment: Minimum inhibitory concentration against fungi, agar incorporation test, strain Q; format: cell-based; details: malt extract/agar
Method: as §1, §2

[9] = tested on: Candida albicans; experiment: Minimum inhibitory concentration against fungi, agar incorporation test, strain P; format: cell-based; details: malt extract/agar
Method: as §1, §2

[10] = tested on: Alcaligenes denitrificans; experiment: Minimum inhibitory concentration against bacteria, strain E; format: cell-based; details: 24 hours at 30° C.; tested at 100 and 300 mg/liter
Method: as §4

[11] = tested on: Serratia marcencens; experiment: Minimum inhibitory concentration against bacteria, strain D; format: cell-based; details: 24 hours at 30° C.; tested at 100 and 300 mg/liter
Method: as §4

[12] = tested on: mixed culture of bacteria; format: cell-based; design: key: +: growth, no destruction; (+): growth less than that of control (>10 colonies), slight destruction; (-): slight growth (1-10 colonies); -: no growth, destruction
[13] = tested on: Aspergillus niger; experiment: Minimum inhibitory concentration against fungi, agar incorporation test, strain K; format: cell-based; details: malt extract/agar
Method: as §1, §2

[14] = tested on: Pseudomonas aeruginosa; experiment: Minimum inhibitory concentration against bacteria, strain B; format: cell-based; details: 24 hours at 30° C.; tested at 100 and 300 mg/liter
Method: as §4

[15] = tested on: Aureobasidium pullulans; experiment: Minimum inhibitory concentration against fungi, agar incorporation test, strain R; format: cell-based; details: malt extract/agar
Method: as §1
(R) Aureobasidium pullulans
as §2

[16] = tested on: Chlorella vulgaris; experiment: Action against algae: Chlorella vulgaris; format: cell-based; design: key: --: no growth on the agar, 3 ppm have destroyed the algae in 6 hours; details: 3 mg/liter; for Growth on the agar (algae-destroying action): 6 hours exposure, 14 days incubation; for Growth in the medium (growth inhibition): 14 days
Method: Cultures of Chlorella vulgaris which had been grown for 14 days in algae nutrient media are diluted in the ratio 1/200 in the algae nutrient medium. Each of the compounds listed in Table 1 is then added in such an amount as to give a final concentration of 3 mg/liter. After incubating for 6 hours, 10 μl of each culture are withdrawn and added dropwise to algae/agar in order to determine the destructive action. After the cultures have incubated for 14 days under illumination (14 hours of light and 10 hours of darkness, alternately), the growth in the algae medium (determination of growth inhibition) and on the algae/agar (determination of algae-destroying action) is assessed visually.

[17] = tested on: Artemia salina; experiment: Action against Artemia salina nauplii; format: in vivo; design: key: 0: no change; 1: slight change; 1-2: animals are attacked; 2: animals are strongly attacked; 2-3: animals are nearly all dead; 3: animals are all dead
Method: The eggs, which are available commercially, are caused to hatch by vigorous aeration. When 2-3 days old, the nauplii are exposed to the products at various concentrations (concentrations tested: 2.5; 1; 0.5 and 0.25 mg/liter) in synthetic seawater, and are observed over a prolonged period of time.

[18] = tested on: Chaetomium globosum; experiment: Minimum inhibitory concentration against fungi, agar incorporation test, strain S; format: cell-based; details: malt extract/agar
Method: as §1, §2

[19] = tested on: Proteus vulgaris; experiment: Minimum inhibitory concentration against bacteria, strain A; format: cell-based; details: 24 hours at 30° C.; tested at 100 and 300 mg/liter
Method: as §4

[20] = tested on: Cladosporium cladosporioides; experiment: Minimum inhibitory concentration against fungi, agar incorporation test, strain O; format: cell-based; details: malt extract/agar
Method: as §1
(O) Cladosporium cladosporioides
as §2

CCCCCCCCCCCC[N+](CCO)(CCO)Cc1ccccc1.CCC[CH2][Sn-]([Cl])([Cl])([CH2]CCC)[CH2]CCC [Example 5, Dihydroxyethyl-benzyl-lauryl / Tributyldichloro]
MIC against fungi, strain M [1]: 5 mg/L | MIC against fungi, strain N [2]: 5 mg/L | MIC [3]: 0.5 mg/L | MIC against bacteria, strain F [4]: 100 mg/L | Destruction, 5 mg/liter [5]: yes | MIC against bacteria, strain C [6]: 100 mg/L | MIC against fungi, strain L [7]: 5 mg/L | MIC against fungi, strain Q [8]: 5 mg/L | MIC against fungi, strain P [9]: 5 mg/L | MIC against bacteria, strain E [10]: 100 mg/L | MIC against bacteria, strain D [11]: 100 mg/L | Growth (destruction of a mixed culture of bacteria) ([12]; 5 mg/l, culture diluted 1/1000 in Tyrode): + | Growth (destruction of a mixed culture of bacteria) ([12]; 5 mg/l, culture diluted 1/10000 in Tyrode): + | Growth (destruction of a mixed culture of bacteria) ([12]; 10 mg/l, culture diluted 1/1000 in Tyrode): + | Growth (destruction of a mixed culture of bacteria) ([12]; 10 mg/l, culture diluted 1/10000 in Tyrode): + | Growth (destruction of a mixed culture of bacteria) ([12]; 30 mg/l, culture diluted 1/1000 in Tyrode): + | Growth (destruction of a mixed culture of bacteria) ([12]; 30 mg/l, culture diluted 1/10000 in Tyrode): + | Growth (destruction of a mixed culture of bacteria) ([12]; 60 mg/l, culture diluted 1/1000 in Tyrode): + | Growth (destruction of a mixed culture of bacteria) ([12]; 60 mg/l, culture diluted 1/10000 in Tyrode): + | Growth (destruction of a mixed culture of bacteria) ([12]; 100 mg/l, culture diluted 1/1000 in Tyrode): + | Growth (destruction of a mixed culture of bacteria) ([12]; 100 mg/l, culture diluted 1/10000 in Tyrode): (+) (growth less than that of control (>10 colonies), slight destruction) | MIC against fungi, strain K [13]: 5 mg/L | MIC against bacteria, strain B [14]: 100 mg/L | MIC against fungi, strain R [15]: 2 mg/L | Growth on the agar (algae-destroying action) [16]: -- | Growth in the medium (growth inhibition) [16]: -- | Action against Artemia salina ([17]; 0,5 mg/l, 6 hours): 1-2 | Action against Artemia salina ([17]; 0,5 mg/l, 24 hours): 2-3 | Action against Artemia salina ([17]; 0,5 mg/l, 48 hours): 3 | Action against Artemia salina ([17]; 0,25 mg/l, 6 hours): 0-1 | Action against Artemia salina ([17]; 0,25 mg/l, 24 hours): 2 | Action against Artemia salina ([17]; 0,25 mg/l, 48 hours): 2-3 | Action against Artemia salina ([17]; 1 mg/l, 6 hours): 2 | Action against Artemia salina ([17]; 1 mg/l, 24 hours): 3 | Action against Artemia salina ([17]; 1 mg/l, 48 hours): 3 | Action against Artemia salina ([17]; 2,5 mg/l, 6 hours): 2-3 | Action against Artemia salina ([17]; 2,5 mg/l, 24 hours): 3 | Action against Artemia salina ([17]; 2,5 mg/l, 48 hours): 3 | MIC against fungi, strain S [18]: 2 mg/L | MIC against bacteria, strain A [19]: 100 mg/L | MIC against fungi, strain O [20]: 2 mg/L

CCCCCCCCCCCCC(=O)NCCC[N+](C)(C)CC(N)=O.CCC[CH2][Sn-]([Cl])([Cl])([CH2]CCC)[CH2]CCC [Example 30, (C12 H25 CO)NH(CH2) 3 N(CH3)2 (CH2 CONH2) / Tributyldichloro]
MIC against fungi, strain M [1]: 10 mg/L | MIC against fungi, strain N [2]: ≤ 5 mg/L | MIC against bacteria, strain F [4]: 100 mg/L | MIC against bacteria, strain C [6]: 100 mg/L | MIC against fungi, strain L [7]: ≤ 5 mg/L | MIC against fungi, strain Q [8]: 10 mg/L | MIC against fungi, strain P [9]: ≤ 5 mg/L | MIC against bacteria, strain E [10]: 100 mg/L | MIC against bacteria, strain D [11]: 100 mg/L | MIC against fungi, strain K [13]: ≤ 5 mg/L | MIC against bacteria, strain B [14]: 100 mg/L | MIC against fungi, strain R [15]: ≤ 5 mg/L | Growth on the agar (algae-destroying action) [16]: -- | Growth in the medium (growth inhibition) [16]: -- | MIC against fungi, strain S [18]: ≤ 5 mg/L | MIC against bacteria, strain A [19]: 100 mg/L | MIC against fungi, strain O [20]: ≤ 5 mg/L
